These results are taken from EP0229313A2, “Compound related to antibiotic TAN-749 and their production” (priority 1985, dated 1987).

Data set [1] relates to Staphylococcus aureus TN 2613. In words: MIC against clinically isolated Staphylococcus aureus strains (Table 5). The data set is classed as cell-based. The settings on record: TN2613, strain TN 2613, resistance type Methicillin, agar dilution method, Mueller Hinton medium, inoculum 10^6CFU/mℓ, read-out: Minimal Inhibitory Concentration. In general terms: In agar dilution, organisms are placed on agar that contains the substance at set levels.

Data set [2] concerns Staphylococcus aureus 308A-1. Put plainly: Therapeutic effects on infectious diseases in mice (Table 6). The data set is classed as in vivo. The following applies: 308A1, po, mice infected with Staphylococcus aureus 308A-1, dihydrochlorides.
In data set [3] the test system is Staphylococcus aureus 1840-2. Put plainly: MIC against clinically isolated Staphylococcus aureus strains (Table 5). Format: cell-based. The following applies: 18402, strain 1840-2, resistance type Penicillin G, agar dilution method, Mueller Hinton medium, inoculum 10^6CFU/mℓ, read-out: Minimal Inhibitory Concentration.
Data set [4] deals with Escherichia coli T7. In words: Therapeutic effects on infectious diseases in mice (Table 6). The data set is classed as in vivo. The following applies: sc; mice infected with Escherichia coli T7; route Subcutaneous; dihydrochlorides.
Data set [5] concerns Staphylococcus aureus TN 2688. In words: MIC against clinically isolated Staphylococcus aureus strains (Table 5). Format: cell-based. The settings on record: TN2688, strain TN 2688, resistance type Macrolide, agar dilution method, Mueller Hinton medium, inoculum 10^6CFU/mℓ, read-out: Minimal Inhibitory Concentration.
For data set [6], the system named is Staphylococcus aureus TN 2687. The description is as above. The data set is classed as cell-based. The following applies: TN2687, strain TN 2687, resistance type Macrolide, agar dilution method, Mueller Hinton medium, inoculum 10^6CFU/mℓ, read-out: Minimal Inhibitory Concentration.
Data set [7] relates to Pseudomonas aeruginosa P-9. Put plainly: Therapeutic effects on infectious diseases in mice (Table 6). Format: in vivo. The settings on record: P9, sc; mice infected with Pseudomonas aeruginosa P-9; route Subcutaneous; dihydrochlorides.
For data set [8], the system named is Escherichia coli 0-111. Described as above. The data set is classed as in vivo. The settings on record: mice infected with Escherichia coli 0-111, route Subcutaneous, dihydrochlorides.
Data set [9] concerns Staphylococcus aureus 1840 S. In words: MIC against clinically isolated Staphylococcus aureus strains (Table 5). The data set is classed as cell-based. The settings on record: strain 1840 S, resistance type None, agar dilution method, Mueller Hinton medium, inoculum 10^6CFU/mℓ, read-out: Minimal Inhibitory Concentration.
Data set [10] concerns Pseudomonas aeruginosa IFO 3080. Put plainly: Antibacterial spectrum, MIC on agar (Table 3). The data set is classed as cell-based. The following applies: Bacto-Antibiotic Medium 3 + yeast extract + agar, inoculum approx. 10^6 CFU/mℓ, dihydrochlorides. The source says: (§1) Tables 3 and 4 show the antibacterial spectra of TAN-749A, B, C, and D (dihydrochlorides) against various microbes.

For data set [11], the system named is Escherichia coli NIHJ JC2. Put plainly: Antibacterial spectrum, MIC on agar (Table 3). Format: cell-based. The settings on record: NIHJJC2, Bacto-Antibiotic Medium 3 + yeast extract + agar, inoculum approx. 10^6 CFU/mℓ, dihydrochlorides, read-out: Minimal Inhibitory Concentration.
Excerpt: as §1

Data set [12] relates to Proteus morganii IFO 3168. Put plainly: Antibacterial spectrum, MIC on agar (Table 3). Format: cell-based. The settings on record: Morganella morganii, IFO3168, Bacto-Antibiotic Medium 3 + yeast extract + agar, inoculum approx. 10^6 CFU/mℓ, dihydrochlorides, read-out: Minimal Inhibitory Concentration.
Excerpt: as §1

Data set [13] deals with Citrobacter freundii IFO 12681. In words: Antibacterial spectrum, MIC on agar (Table 3). Format: cell-based. The settings on record: Bacto-Antibiotic Medium 3 + yeast extract + agar, inoculum approx. 10^6 CFU/mℓ, dihydrochlorides.
Excerpt: as §1

For data set [14], the system named is Staphylococcus aureus FDA 209P. Put plainly: Antibacterial spectrum, MIC on agar (Table 3). The data set is classed as cell-based. The following applies: Bacto-Antibiotic Medium 3 + yeast extract + agar, inoculum approx. 10^6 CFU/mℓ, dihydrochlorides.
Excerpt: as §1

For data set [15], the system named is Proteus vulgaris IFO 3988. In words: Antibacterial spectrum, MIC on agar (Table 3). The data set is classed as cell-based. The settings on record: IFO3988, Bacto-Antibiotic Medium 3 + yeast extract + agar, inoculum approx. 10^6 CFU/mℓ, dihydrochlorides, read-out: Minimal Inhibitory Concentration.
Excerpt: as §1

Data set [16] has as its system Klebsiella pneumoniae IFO 3317. In words: Antibacterial spectrum, MIC on agar (Table 3). Format: cell-based. The following applies: IFO3317, Bacto-Antibiotic Medium 3 + yeast extract + agar, inoculum approx. 10^6 CFU/mℓ, dihydrochlorides, read-out: Minimal Inhibitory Concentration.
Excerpt: as §1

Data set [17] deals with Staphylococcus aureus TN 2648. In words: MIC against clinically isolated Staphylococcus aureus strains (Table 5). Format: cell-based. The settings on record: TN2648, strain TN 2648, resistance type Methicillin, agar dilution method, Mueller Hinton medium, inoculum 10^6CFU/mℓ, read-out: Minimal Inhibitory Concentration.
The test system of data set [18] is Staphylococcus aureus TN 2684. Described as above. The data set is classed as cell-based. The following applies: TN2684, strain TN 2684, resistance type Macrolide, agar dilution method, Mueller Hinton medium, inoculum 10^6CFU/mℓ, read-out: Minimal Inhibitory Concentration.
Data set [19] has as its system Escherichia coli T7. In words: Antibacterial spectrum, MIC by agar dilution method (Table 4). The following applies: inoculum 10^8 CFU/mℓ, dihydrochlorides. Format: cell-based.
Excerpt: as §1

Data set [20] deals with Pseudomonas aeruginosa P9. Described as above. The data set is classed as cell-based. The settings on record: medium B-TSA (10% horse serum/TSA), inoculum 10^8 CFU/mℓ, dihydrochlorides, read-out: Minimal Inhibitory Concentration.
Excerpt: as §1

Data set [21] in a line: Acute toxicities on mice (Table 7). The following applies: mouse, in vivo, dihydrochlorides.
The test system of data set [22] is Acinetobacter calcoaceticus IFO 13006. In words: Antibacterial spectrum, MIC on agar (Table 3). The following applies: Bacto-Antibiotic Medium 3 + yeast extract + agar, inoculum approx. 10^6 CFU/mℓ, dihydrochlorides, listed as C. The data set is classed as cell-based.
Excerpt: as §1

Data set [23] relates to Streptococcus pyogenes E-14. In words: Antibacterial spectrum, MIC by agar dilution method (Table 4). The data set is classed as cell-based. The following applies: medium B-TSA (10% horse serum/TSA), inoculum 10^8 CFU/mℓ, dihydrochlorides, listed as C.
Excerpt: as §1

The test system of data set [24] is Staphylococcus aureus FDA209P. The description is as above. The following applies: medium B-TSA (10% horse serum/TSA), inoculum 10^8 CFU/mℓ, dihydrochlorides, listed as C. Format: cell-based.
Excerpt: as §1

Data set [25] relates to Staphylococcus aureus 308A-1. The description is as above. The data set is classed as cell-based. The following applies: medium TSA, inoculum 10^8 CFU/mℓ, dihydrochlorides, listed as C.
Excerpt: as §1

≈ marks a conversion by molar mass, not a printed value. Read-outs that look alike come from different tables or passages of the source. A value given as a limit tells only on which side of the number the result lay.

A word on the ED50: it is the midpoint of the dose-response relation. The LD50 is the dose at which mortality reaches 50%. Low readings indicate greater toxicity, high ones lower toxicity. With `CC=CC=CC(=O)NCC(O)CC(N)CC(=O)NCCC(=N)N` (stereo not shown) [TAN-749A], the MIC in data set [1] came out at 6.25 µg/mL (≈ 19.2 µM); in data set [3], 12.5 µg/mL (≈ 38.4 µM); in [5] it was 6.25 µg/mL (≈ 19.2 µM); in data set [6] it was 6.25 µg/mL (≈ 19.2 µM); in [9], 12.5 µg/mL (≈ 38.4 µM); in data set [10] (Pseudomonas aeruginosa, IFO3080, Pseudomonas aeruginosa IFO 3080, read-out: Minimal Inhibitory Concentration) it was 25 µg/mL. Moreover, the MIC in data set [11] was above 100 µg/mL; in data set [12], above 100 µg/mL; in data set [13] (Citrobacter freundii, IFO12681, Citrobacter freundii IFO 12681, read-out: Minimal Inhibitory Concentration), at least 100 µg/mL; in data set [14] (Staphylococcus aureus, FDA209P, read-out: Minimal Inhibitory Concentration), 50 µg/mL; in data set [15] it was 100 µg/mL; in data set [16], above 100 µg/mL. Further, the MIC worked out at 3.13 µg/mL (≈ 9.62 µM) in data set [17]; 6.25 µg/mL (≈ 19.2 µM) in [18]; 50 µg/mL (≈ 154 µM) in data set [19] (Escherichia coli, T7, Escherichia coli T7, medium TSA, read-out: Minimal Inhibitory Concentration); 100 µg/mL (≈ 307 µM) in [20]. The ED50 was 17.7 mg/kg in data set [2]; 50.8 mg/kg in [4]; 31 mg/kg in [7]; 67.2 mg/kg in [8] (Escherichia coli, 0111, sc, read-out: ED50). The median lethal dose (LD50) in data set [21] (route Oral) was 2000 to 4000 mg/kg; in data set [21] (sc, route Subcutaneous), around 500 mg/kg.
Regarding `CC=CC=CC(=O)NCC(O)CC(N)CC(=O)NCCC(=N)N` (stereo not shown) [TAN-749C], in data set [8] (listed as C), the median effective dose (ED50) came to 50 mg/kg. Besides, the “Minimal Inhibitory Concentration” value in data set [10] (Pseudomonas aeruginosa IFO 3080, listed as C) is 50 µg/mL; in data set [22], above 100 µg/mL; in data set [13] (Citrobacter freundii IFO 12681, listed as C), above 100 µg/mL; in data set [14] (listed as C) it was above 100 µg/mL; in data set [23], 100 µg/mL; in data set [19] (Escherichia coli T7, medium TSA, listed as C) it was above 100 µg/mL. The “Minimal Inhibitory Concentration” value in [24] and in [25] was above 100 µg/mL throughout.
